# Calls of active or inactive are those of the source.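 The calls were made as follows: active = IC50 of 25 µM or lower, counted as toxic to worms; inactive = the rest.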
# System: C. elegans VP596, manual health composite score, 20-22 h
# Assay: whole-worm cytotoxicity of SKN-1 inhibitor candidates – whole organism, strain VP596, composite health score, cytotoxicity control for SKN-1 inhibitor project, SAR follow-up (AID 652161)
row,SMILES,IC50
1,CCOc1cc(CNC2CCCC2)cc(Cl)c1OCc1ccccc1,> 64 µM (inactive)
2,COc1cc(CNC2CCCC2)cc(Cl)c1OCc1ccc(F)cc1,46.9 µM (inactive)
3,CCOC(=O)Nc1nc(-c2ccc(F)cc2F)cs1,22.9 µM
4,COc1cc(CNC(C)(C)CO)cc(Br)c1OCc1ccc(Cl)cc1,56.3 µM (inactive)
5,Clc1ccc(Nc2nc(-c3cccs3)cs2)nc1,12.4 µM
6,Clc1ccccc1-c1nnc(-c2ccccc2Cl)o1,20.9 µM
7,Fc1ccc(COc2ccc(-c3nnco3)cc2)cc1,34.9 µM (inactive)
8,O=C(Nc1nc2c(ccc3ccccc32)s1)c1ccco1,20.3 µM
9,c1ccc2oc(SCc3nc4ccccc4s3)nc2c1,13.9 µM
10,Brc1ccc(-c2nnc(-c3ccco3)o2)cc1,12.9 µM
11,c1ccc(SCc2cc(-c3ccccc3)no2)cc1,11.5 µM
12,Brc1ccc(CSc2nnc(-c3ccco3)o2)cc1,8.76 µM
13,O=C(/C=C/Nc1ccc(F)cc1F)c1cccs1,21.4 µM
14,CCOc1cc(CNC2CCCC2)cc(Cl)c1OCc1ccc(F)cc1,> 64 µM (inactive)
15,CCOC(=O)c1c(-c2ccc(-c3ccccc3)cc2)csc1NC(=O)CNCCN(C)C,> 64 µM (inactive)
16,Brc1ccc(-c2nc(-c3ccccc3)no2)o1,11.9 µM
17,O=C(/C=C/Nc1ccc(F)c(Cl)c1)c1ccco1,18.8 µM
18,O=C(Nc1nc(-c2ccc(Cl)s2)cs1)c1ccco1,16.1 µM
19,CC(C)c1ccc(C(=O)Nc2ccc(CN3CCOCC3)cc2)cc1,14.7 µM
20,O=C(Nc1ccc(CN2CCOCC2)cc1)c1cc2ccccc2o1,35.3 µM (inactive)

row,SMILES,IC50
1,Cc1ccc(N=C/C(C(=O)C(F)(F)F)=C(\O)c2ccco2)cc1Cl,27.2 µM (inactive)
2,Cc1ccc(Nc2nc(-c3cccs3)cs2)nc1,27.3 µM (inactive)
3,O=C(Nc1nc(-c2ccc(Cl)s2)cs1)c1cccs1,> 64 µM (inactive)
4,Fc1ccc(-c2csc(Nc3ccccn3)n2)cc1,7.02 µM
5,CCc1ccc(-c2nc(-c3ccncc3)no2)cc1,10.6 µM
6,Fc1ccc(-c2csc(-c3ccncc3)n2)cc1,10.6 µM
7,O=C(/C=C/Nc1ccc(F)c(F)c1)c1cccs1,> 64 µM (inactive)
8,Clc1ccccc1-c1nc(-c2ccncc2)no1,15.3 µM
9,O=C(/C=C/c1ccc(Br)cc1)c1ccc(NC2=NCCCS2)cc1,20.1 µM
10,Brc1ccc(CSc2nnc(-c3cccnc3)o2)cc1,25.2 µM (inactive)
11,Clc1ccc(-c2nnc(-c3ccccc3)o2)c(Cl)c1,27.9 µM (inactive)
12,Fc1ccc(COc2ccc(-c3nnco3)cc2)c(Cl)c1,8.11 µM
13,c1ccc(-c2nc(-c3ccncc3)no2)cc1,> 64 µM (inactive)
14,Cc1ccccc1-c1noc(-c2cccs2)n1,7.83 µM
15,Cc1cc(OCc2cccc(Cl)c2)c(C)cc1CN1CCOCC1,21 µM
16,O=C(Nc1nc(-c2ccccc2)cs1)c1cccs1,15 µM
17,COc1cc(CNC(C)c2ccccc2)cc(Br)c1OCc1ccc(F)cc1 (stereo not drawn),> 64 µM (inactive)
18,COc1ccc(C(=O)Nc2nc(-c3cccs3)cs2)cc1,> 64 µM (inactive)
19,c1ccc(-c2csc(-c3ccncc3)n2)cc1,23.9 µM
20,c1ccc(Nc2nc(-c3cccs3)cs2)nc1,14.9 µM

row,SMILES,IC50
1,O=C(/C=C/Nc1ccc(F)cc1F)c1ccco1,24.1 µM
2,O=C(/C=C/Nc1ccc(Br)cc1F)c1ccco1,14.8 µM
3,c1ccc2sc(SCc3ccc(-c4nnco4)cc3)nc2c1,14.5 µM
4,Cc1ccc2nc(-c3ccc(NC(=S)NC4CC(C)(C)NC(C)(C)C4)cc3)sc2c1,62 µM (inactive)
5,CCOc1cc(CNCCSc2nnnn2C)cc(Br)c1OCc1ccc(F)cc1,16 µM
6,c1ccc(-c2csc(Nc3ccccn3)n2)cc1,6.56 µM
7,O=C(/C=C/c1cccs1)c1ccc(Br)cc1,11.6 µM
8,Cc1oc(-c2ccc(-c3ccccc3)cc2)nc1CN(C)C1CCOC1 (stereo not drawn),> 64 µM (inactive)
9,O=C(Nc1nccs1)c1ccc2ccccc2n1,16 µM
10,O=C(/C=C/c1ccccc1)Nc1ccc(CN2CCOCC2)cc1,> 64 µM (inactive)
11,Cc1ccc(CSc2nnc(-c3ccco3)o2)cc1,19.1 µM
12,Clc1ccc(-c2nnc(-c3ccco3)o2)cc1,16.9 µM
13,CCOc1ccc(-c2nc(-c3cccnc3)no2)cc1,8.88 µM
14,Cc1nc2ccccc2cc1OCc1ccc(F)cc1,8.59 µM
15,O=C(Nc1nc(-c2ccc(Cl)s2)cs1)c1ccccc1,> 64 µM (inactive)
16,CSc1cccc(NC(=O)c2cccc3cccnc23)c1,47 µM (inactive)
17,O=C(/C=C/Nc1ccccc1F)c1cccs1,35.2 µM (inactive)
18,Cc1ccc(-c2noc(-c3cccs3)n2)cc1,10.6 µM

# Source: PubChem BioAssay AID652161 (Sanford-Burnham Center for Chemical Genomics, 2013)
